Key:
[1] = tested on: patients with metastatic colorectal cancer; conditions: human, in vivo
Experimental: The aim of this study was to assess adverse events, dose reductions and clinical outcome. In both treatment arms 80 mg/m^2 of CPT-11 were administered intravenously over 30 minutes on day 1, 8, 15, 22, 29 and 36 and the cycle repeated after day 50. In arm A of the FIRE study FA (500 mg/m^2, 120 min. infusion) and 5-FU (2000 mg/m^2, 24 h infusion) were co-administered on days 1, 8, 15, 22, 29, 36, and in arm B oxaliplatin (85 mg/m^2, 120 min infusion) were co-administered on day 1, 15 and 29. At the beginning of each treatment cycle adverse events and clinical symptoms were documented. Patients with known Gilbert's disease were excluded from this study. The following adverse events were analyzed: diarrhea within 24 h and later than 24 after administration of CPT-11, loss of body weight more than 5%, anemia, thrombocytopenia, and leukopenia. The intensity of adverse events was classified according to the WHO-Adverse Reaction Terminology with scores from “0”—“no adverse events” to 4—“life-threatening adverse events”. If the CPT-11 dose had to be reduced to less than 80%, dose reduction was documented at each cycle. Genomic DNA from full blood of all patients was isolated as described before and genotyped after written informed consent was obtained. The study was approved by the local ethics committees.
All genotyping studies were performed in a blinded fashion without prior knowledge of the clinical data of the analyzed patient. Approximately 10 ng of genomic DNA were used as a template in Taqman 5′-nuclease assays. Primers and probes specific for each SNP were designed with Primer Express Software (Applied Biosystems) and labelled with either 6-FAM or VIC as reporter dyes and MGB-NFQ (Applied Biosystems) as a quencher as described in Lankisch et al., Mol. Pharmacol, 2005, 67(5); 1732-1739. The Taqman assays were performed using 600 nM primer concentrations and 200 nM probe concentrations (Applied Biosystems) and qPCR Mastermix Plus (Eurogentec, Seraing, Belgium). The run consisted of a hot start at 95° C. for 10 minutes and 35 cycles of 94° C. for 15 sec. and 61° C. for 1 min. All assays were performed in 25 μl reactions in 96-well trays using an ABI 7000 instrument (Applied Biosystems). UGT1A1*28 was determined by Oncoscreen, Jena, Germany.
Patients were classified according to the number of SNPs determined at the UGT1A1*28, UGT1A7 −57 T/G and UGT1A7 N129K/R131K gene loci. In the absence of allelic variants patients were classified as “low risk”, whereas high risk patients were defined if at least one allele of the allelic variant of each analyzed gene locus was present. If only one or two allelic variants were detected at the UGT1A1 or UGT1A7 gene locus, patients were classified as “intermediate risk”. […] Frequency and intensity of the adverse events were compared between the risk groups defined above by Cochran-Mantel-Haenszel statistics using modified ridit scores. The risk groups were also compared by multivariant analysis (non-parametric Weil-Lachin procedure) for differences in intensity of 5 adverse events simultaneously. […] This test leads to values between 0 and 1 with 0.5 characterizing equal chances, which would indicate no difference in the comparison of these patients. The analysis of incidence and intensity of adverse events was based on the documented 297 treatment cycles involving all 105 patients. The Chi-Square test was used for statistical analysis of CPT-11 dose reductions. P-values were not adjusted for multiple testing. All statistical analyses were calculated by an independent statistician who was not involved in patient treatment or genotyping (Estimate GmbH, Augsburg, Germany).

UGT1A7 = target: T1, UGT1A7 (Homo sapiens, UniProt Q9HAW7); conditions: stated as known; cited from earlier work
T1 construct: expressed in transfected cells; host or cells: HEK293
T1 sequence (Q9HAW7 26-530): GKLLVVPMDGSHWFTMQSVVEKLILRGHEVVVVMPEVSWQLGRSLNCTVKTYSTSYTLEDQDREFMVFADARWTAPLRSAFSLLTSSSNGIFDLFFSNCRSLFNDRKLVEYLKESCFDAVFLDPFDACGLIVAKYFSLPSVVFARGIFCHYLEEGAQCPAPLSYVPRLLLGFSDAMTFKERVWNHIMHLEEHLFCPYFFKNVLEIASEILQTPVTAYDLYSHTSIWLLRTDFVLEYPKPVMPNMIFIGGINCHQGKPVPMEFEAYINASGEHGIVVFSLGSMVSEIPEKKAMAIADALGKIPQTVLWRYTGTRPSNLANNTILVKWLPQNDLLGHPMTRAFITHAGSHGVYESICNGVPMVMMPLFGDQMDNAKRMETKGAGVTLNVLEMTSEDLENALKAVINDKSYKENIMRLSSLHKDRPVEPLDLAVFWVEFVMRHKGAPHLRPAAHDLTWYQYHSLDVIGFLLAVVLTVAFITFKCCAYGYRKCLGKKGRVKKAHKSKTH

[2] = background statement; cited from earlier work

Compound | Leukopenia WHO Grade 1, % [1] | Leukopenia WHO Grade 1, n treatment cycles [1] | Thrombocytopenia WHO Grade 2, % [1] | Thrombocytopenia WHO Grade 2, n treatment cycles [1] | Thrombocytopenia WHO Grade 3, % [1] | Thrombocytopenia WHO Grade 3, n treatment cycles [1] | diarrhea <24 h WHO Grade 3, % of treatment cycles [1] | diarrhea <24 h WHO Grade 3, N treatment cycles [1] | leukopenia WHO Grade 4, % of treatment cycles [1] | leukopenia WHO Grade 4, N treatment cycles [1] | thrombocytopenia WHO Grade 2, % of treatment cycles [1] | thrombocytopenia WHO Grade 2, N treatment cycles [1] | thrombocytopenia WHO Grade 3, % of treatment cycles [1] | thrombocytopenia WHO Grade 3, N treatment cycles [1] | overall incidence of adverse events, Mann Whitney test ([1]; 50 days) | Leukopenia WHO Grade 4, % ([1]; 50 days (one treatment cycle)) | Leukopenia WHO Grade 4, n treatment cycles ([1]; 50 days (one treatment cycle)) | specific activity of UGT1A7 with SN-38 compared with UGT1A1 (UGT1A7) | activity higher than irinotecan [2]
CCc1c2c(nc3ccc(OC(=O)N4CCC(N5CCCCC5)CC4)cc13)-c1cc3c(c(=O)n1C2)COC(=O)[C@]3(O)CC [irinotecan] | 21% | 10 | 3% | 5 | 1% | 1 | 1 (1%) | 1 (1%) | 1% | 2 | 3% | 5 | 1 (1%) | 1 (1%) | 0.5511 | 1% | 2 | – | –
CCc1c2c(nc3ccc(O)cc13)-c1cc3c(c(=O)n1C2)COC(=O)[C@]3(O)CC [SN-38, 7-ethyl-10-hydroxycamptothecin] | – | – | – | – | – | – | – | – | – | – | – | – | – | – | – | – | – | five-hold higher | 100-1000 fold
